Among the data in patent US10550105B2 (Ribon Therapeutics Inc., priority 2018, dated 2020) are IC50 values, retold here.

This test deals with PARP7 (Homo sapiens (Human), UniProt Q7Z3E1). Kind of test: Enzymatic assay for inhibition of PARP7: TR-FRET displacement of biotinylated Probe A from the TIPARP active site. Particulars: Table A-1. The format is binding. The gist of the method: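 TR-FRET, ex 320 nm / em 615 and 665 nm. Signal ratio reflects complex formation.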
Background: In TR-FRET formats the signal depends on donor and acceptor labels being close together.

PARP7, sequence (Q7Z3E1 whole entry): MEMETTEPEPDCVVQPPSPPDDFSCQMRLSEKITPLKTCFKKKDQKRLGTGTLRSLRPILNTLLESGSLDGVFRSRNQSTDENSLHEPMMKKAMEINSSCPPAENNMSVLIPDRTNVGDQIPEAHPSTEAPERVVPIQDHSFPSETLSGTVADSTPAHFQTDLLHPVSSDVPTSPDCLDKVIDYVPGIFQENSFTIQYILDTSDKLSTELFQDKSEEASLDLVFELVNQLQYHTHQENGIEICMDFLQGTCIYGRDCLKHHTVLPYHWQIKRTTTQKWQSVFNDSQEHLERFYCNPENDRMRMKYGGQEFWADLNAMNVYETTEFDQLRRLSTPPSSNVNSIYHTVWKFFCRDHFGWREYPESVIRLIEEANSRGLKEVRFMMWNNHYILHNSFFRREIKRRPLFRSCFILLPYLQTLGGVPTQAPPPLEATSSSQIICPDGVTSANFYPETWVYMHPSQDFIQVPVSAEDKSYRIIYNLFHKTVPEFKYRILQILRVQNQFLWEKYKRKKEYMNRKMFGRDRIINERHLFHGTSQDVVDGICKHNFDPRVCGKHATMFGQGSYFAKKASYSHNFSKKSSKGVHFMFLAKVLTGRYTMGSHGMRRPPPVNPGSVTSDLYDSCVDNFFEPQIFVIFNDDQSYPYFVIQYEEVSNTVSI

What is called IC50 is the concentration that inhibits the measured activity by half. In turn, `O=C(C[C@H]1CC[C@@H]([C@@H]2CCCN2c2cn[nH]c(=O)c2C(F)(F)F)O1)N1CCN(c2ccc(Cl)cn2)CC1` [Example 148D, 5-[(2S)-2-[(2S,5R)-5-[2-[4-(5-chloropyridin-2-yl)piperazin-1-yl]-2-oxoethyl]oxolan-2-yl]pyrrolidin-1-yl]-4-(trifluoromethyl)-2,3-dihydropyridazin-3-one] returned a half-inhibitory concentration (IC50) of less than 100 nM.

For the compound `O=C(C[C@@H]1CC[C@@H]([C@@H]2CCCN2c2cn[nH]c(=O)c2C(F)(F)F)O1)N1CCN(c2ncc(C(F)(F)F)cn2)CC1` [Example 149A, 5-[(2S)-2-[(2S,5S)-5-(2-oxo-2-[4-[5-(trifluoromethyl)pyrimidin-2-yl]piperazin-1-yl]ethyl)oxolan-2-yl]pyrrolidin-1-yl]-4-(trifluoromethyl)-2,3-dihydropyridazin-3-one], the IC50 was less than 100 nM.

In the case of `O=C(C[C@H]1CC[C@@H]([C@@H]2CCCN2c2cn[nH]c(=O)c2C(F)(F)F)O1)N1CCN(c2ncc(C(F)(F)F)cn2)CC1` [Example 149B, 5-[(2S)-2-[(2S,5R)-5-(2-oxo-2-[4-[5-(trifluoromethyl)pyrimidin-2-yl]piperazin-1-yl]ethyl)oxolan-2-yl]pyrrolidin-1-yl]-4-(trifluoromethyl)-2,3-dihydropyridazin-3-one], the IC50 is less than 100 nM.

With `O=C(C[C@@H]1CC[C@H]([C@@H]2CCCN2c2cn[nH]c(=O)c2C(F)(F)F)O1)N1CCN(c2ncc(C(F)(F)F)cn2)CC1` [Example 149C, 5-[(2S)-2-[(2R,5S)-5-(2-oxo-2-[4-[5-(trifluoromethyl)pyrimidin-2-yl]piperazin-1-yl]ethyl)oxolan-2-yl]pyrrolidin-1-yl]-4-(trifluoromethyl)-2,3-dihydropyridazin-3-one], the IC50 was less than 100 nM.

In the case of `O=C(C[C@H]1CC[C@H]([C@@H]2CCCN2c2cn[nH]c(=O)c2C(F)(F)F)O1)N1CCN(c2ncc(C(F)(F)F)cn2)CC1` [Example 149D, 5-[(2S)-2-[(2R,5R)-5-(2-oxo-2-[4-[5-(trifluoromethyl)pyrimidin-2-yl]piperazin-1-yl]ethyl)oxolan-2-yl]pyrrolidin-1-yl]-4-(trifluoromethyl)-2,3-dihydropyridazin-3-one], the IC50 is less than 100 nM.

`O=c1[nH]ncc(N2Cc3ccc(OC4CCNCC4)cc3C2)c1C(F)(F)F` [Example 150, 5-[5-(Piperidin-4-yloxy)-2,3-dihydro-1H-isoindol-2-yl]-4-(trifluoromethyl)-2,3-dihydropyridazin-3-one] yielded a half-inhibitory concentration (IC50) of less than 100 nM.

As to `O=c1[nH]ncc(N2Cc3ccccc3C2)c1Cl` [Example 151, 4-Chloro-5-(isoindolin-2-yl)pyridazin-3(2H)-one], the IC50 was in the range of 100 to 1000 nM.

For the compound `O=c1[nH]ncc(N2Cc3ccncc3C2)c1Cl` [Example 152, 4-Chloro-5-(1,3-dihydro-2H-pyrrolo[3,4-c]pyridin-2-yl)pyridazin-3(2H)-one], the IC50 fell in the range of 100 to 1000 nM.

In turn, `COc1cccc2c1CN(c1cn[nH]c(=O)c1Cl)C2` [Example 153, 4-Chloro-5-(4-methoxyisoindolin-2-yl)pyridazin-3(2H)-one] had an IC50 of 100 to 1000 nM.

`O=c1[nH]ncc(N2Cc3cccnc3C2)c1Cl` [Example 154, 4-Chloro-5-(5,7-dihydro-6H-pyrrolo[3,4-b]pyridin-6-yl)pyridazin-3(2H)-one] displayed an IC50 of 100 to 1000 nM.

Compound `COc1ccc2c(c1)CN(c1cn[nH]c(=O)c1Cl)C2` [Example 155, 4-Chloro-5-(5-methoxyisoindolin-2-yl)pyridazin-3(2H)-one] yielded an IC50 of 100 to 1000 nM.

With `COCCOc1ccc2c(c1)CN(c1cn[nH]c(=O)c1Cl)C2` [Example 156, 4-Chloro-5-(5-(2-methoxyethoxy)isoindolin-2-yl)pyridazin-3(2H)-one], the concentration for half-maximal inhibition (IC50) is 100 to 1000 nM.

Turning to `O=c1[nH]ncc(N2Cc3ccc(OCCO)cc3C2)c1Cl` [Example 157, 4-Chloro-5-(5-(2-hydroxyethoxy)isoindolin-2-yl)pyridazin-3(2H)-one], the IC50 fell in the range of 100 to 1000 nM.

As for `O=c1[nH]ncc(N2Cc3ccc(OC4CCNCC4)cc3C2)c1Cl` [Example 158, 4-Chloro-5-(5-(piperidin-4-yloxy)isoindolin-2-yl)pyridazin-3(2H)-one], the IC50 lay within 100 to 1000 nM.

Turning to `Cc1c(N2Cc3ccccc3C2)cn[nH]c1=O` [Example 159, 5-(Isoindolin-2-yl)-4-methylpyridazin-3(2H)-one], the IC50 is not below 1000 nM.

`O=c1[nH]ncc(N2Cc3ccccc3C2)c1C(F)(F)F` [Example 160, 5-(Isoindolin-2-yl)-4-(trifluoromethyl)pyridazin-3(2H)-one] displayed a half-inhibitory concentration (IC50) of less than 100 nM.

With `O=c1[nH]ncc(N2Cc3cccc(OCCO)c3C2)c1Cl` [Example 161, 4-Chloro-5-(4-(2-hydroxyethoxy)isoindolin-2-yl)pyridazin-3(2H)-one], the IC50 was in the range of 100 to 1000 nM.

`COCCOc1cccc2c1CN(c1cn[nH]c(=O)c1Cl)C2` [Example 162, 4-Chloro-5-(4-(2-methoxyethoxy)isoindolin-2-yl)pyridazin-3(2H)-one] came in with a half-maximal inhibitory concentration (IC50) of 100 to 1000 nM.

For `NCCOc1cccc2c1CN(c1cn[nH]c(=O)c1Cl)C2` [Example 163, 5-(4-(2-Aminoethoxy)isoindolin-2-yl)-4-chloropyridazin-3(2H)-one], the IC50 is not below 1000 nM.

The compound `COc1cccc2c1CN(c1cn[nH]c(=O)c1C(F)(F)F)C2` [Example 164, 5-(4-Methoxyisoindolin-2-yl)-4-(trifluoromethyl)pyridazin-3(2H)-one] showed an IC50 of less than 100 nM.

`O=c1[nH]ncc(N2Cc3cccc(OC4CCNCC4)c3C2)c1Cl` [Example 165, 4-Chloro-5-(4-(piperidin-4-yloxy)isoindolin-2-yl)pyridazin-3(2H)-one]: the IC50 was not below 1000 nM.

In the case of `CN(C)CCOc1cccc2c1CN(c1cn[nH]c(=O)c1Cl)C2` [Example 166, 4-Chloro-5-(4-(2-(dimethylamino)ethoxy)isoindolin-2-yl)pyridazin-3(2H)-one], the IC50 was not below 1000 nM.

As to `COc1cccc2c1CN(c1cn[nH]c(=O)c1C)C2` [Example 167, 5-(4-Methoxyisoindolin-2-yl)-4-methylpyridazin-3(2H)-one], the IC50 lay in the range of 100 to 1000 nM.

On to `O=c1[nH]ncc(N2Cc3cccc(OCCO)c3C2)c1Br` [Example 168, 4-Bromo-5-(4-(2-hydroxyethoxy)isoindolin-2-yl)pyridazin-3(2H)-one], for which the half-inhibitory concentration (IC50) is 100 to 1000 nM.

The compound `O=c1[nH]ncc(N2Cc3ccc(F)cc3C2)c1C(F)(F)F` [Example 169, 5-(5-Fluoroisoindolin-2-yl)-4-(trifluoromethyl)pyridazin-3(2H)-one] gave a half-maximal inhibitory concentration (IC50) of less than 100 nM.

`O=c1[nH]ncc(N2Cc3cccc(OC4CCNCC4)c3C2)c1C(F)(F)F` [Example 170, 5-(4-(Piperidin-4-yloxy)isoindolin-2-yl)-4-(trifluoromethyl)pyridazin-3(2H)-one] had an IC50 of less than 100 nM.

In turn, `Cc1c(N2Cc3cccc(OCCO)c3C2)cn[nH]c1=O` [Example 171, 5-(4-(2-Hydroxyethoxy)isoindolin-2-yl)-4-methylpyridazin-3(2H)-one] registered a 50% inhibitory concentration (IC50) not below 1000 nM.

`O=c1[nH]ncc(N2Cc3cccc(OC4CCNCC4)c3C2)c1Br` [Example 172, 4-Bromo-5-(4-(piperidin-4-yloxy)isoindolin-2-yl)pyridazin-3(2H)-one]: the IC50 was 100 to 1000 nM.

For `COc1ccc2c(c1)CN(c1cn[nH]c(=O)c1C)C2` [Example 173, 5-(5-Methoxyisoindolin-2-yl)-4-methylpyridazin-3(2H)-one], the IC50 fell in the range of 100 to 1000 nM.
